“And” between values parts separate entries of the source, which are not always exact repeats. Identical values can stand only once. Non-standard residues stand in square brackets, D forms with d. Residues, ends and D or L forms follow the SMILES beside them. Nva = CCC[C@H](N)C(=O)O
What was measured:
HepG2 cells = assay: PA induced lipid accumulation, Oil Red O staining; type: cell-based, human; details: HepG2, 0.25 mM PA + 200 μM peptide, 24 h; in words
Protocol: Hepatoma carcinoma cell line HepG2 and human hepatic activated stellate cell line LX2 used in this study were purchased from Type Culture Collection of the Chinese Academy of Sciences (Shanghai, China). Cells were cultured in Dulbecco’s modified Eagle’s medium (DMEM) with 10% fetal bovine serum (FBS), supplemented with 1% penicillin–streptomycin (ThermoFisher Scientific, USA) at 37 °C in a humidified atmosphere of 5% CO2. In PA (Sigma, USA) induced lipid accumulation cell model, HepG2 cells were seeded into a 6-well plate at 5E5 cells per well. 0.25 mM PA and/or 200 μM candidate peptides were co-incubated with cells for 24 h. Then Oil Red O staining was performed to evaluate the accumulation of lipid droplets. BSA (Sigma, USA) was used in this experiment as the negative control. For LX2 cells, 2E5 cells were seeded, then the adherent cells were exposed to 200 μM candidate peptides for another 48 h. Next, the cell protein was obtained and western blotting was performed. Candidate peptides were diluted in DMEM in a stock concentration of 1 M.

AdipoR1 = molecular target: T1, AdipoR1 (Homo sapiens, UniProt Q96A54); assay: Competition binding assay vs globular adiponectin (western blot), AdipoR1 overexpression cells; details: JT003 4 h, then 50 μg ml−1 gAd155–161 4 h, in words
T1 construct: His; host or cells: HEK293
T1 sequence (Q96A54 1-375): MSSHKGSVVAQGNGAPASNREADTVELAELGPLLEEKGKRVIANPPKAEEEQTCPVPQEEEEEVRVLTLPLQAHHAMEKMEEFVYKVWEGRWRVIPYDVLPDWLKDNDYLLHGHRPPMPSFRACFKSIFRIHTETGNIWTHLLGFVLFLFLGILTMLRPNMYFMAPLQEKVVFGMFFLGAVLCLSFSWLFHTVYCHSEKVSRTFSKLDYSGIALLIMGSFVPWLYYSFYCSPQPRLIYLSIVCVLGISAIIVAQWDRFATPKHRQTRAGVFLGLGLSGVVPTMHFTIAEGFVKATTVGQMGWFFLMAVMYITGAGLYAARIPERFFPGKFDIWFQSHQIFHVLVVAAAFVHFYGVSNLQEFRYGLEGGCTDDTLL
Protocol: Different concentration of JT003 were incubated with AdipoR1 or AdipoR2 overexpression HEK293 cell line for 4 h. After that, 50 μg ml^−1 gAd155–161 were added for another 4 h incubation. The binding of gAd155–161 to the cells were measured via western blot assay.

[1] = Pharmacokinetic assay in SD rats; type: in vivo, rat
Protocol: Male SpragueDawley (SD) rats were randomly divided into two groups (n = 3 per group) and received a single intravenous dose of JT003 (0.5 mg/kg) or ADP355 (1.0 mg kg^−1) respectively. Blood samples were collected at 5, 15, 30, 45 min and 1, 2, 3 h following the injection, and then were immediately centrifuged (4000g, 10 min, 4 °C) to obtain plasma samples. Plasma concentrations of the two peptides were measured by LC-MS/MS (ThermoFisher Scientific, USA). Pharmacokinetic parameters of JT003 and ADP355 were calculated using non-compartmental analysis in Phoenix WinNonlin (version 8.0, Pharsight, USA). The concentration values less than the LLOQ were set to zero for the analysis.

[2] = tested on: liver protein expression of CCl4 induced liver fibrosis mice; assay: CCl4 mice: liver western blot; type: in vivo, mouse
Protocol: Male mice liver fibrosis was induced by intraperitoneal injection of 20% CCl4 (Sigma, USA) diluted in corn oil (Aladdin, China) every 3 days for 6 weeks (n = 6; 5 ml kg^−1 body weight). Mice injected with equivalent volume of corn oil serves as control group (n = 6). Liver fibrosis mice treated with JT003 for 3 weeks were used to evaluated the pharmacological effects (n = 6; 500 μg kg^−1; daily intraperitoneal injection).
Total protein was isolated from cells or liver samples using RIPA lysis buffer (50.0 mM Tris-HCl (pH = 8.0), 150.0 mM NaCl, 0.02% NaN3, 0.1% SDS, 1% NP-40, 0.5% deoxysodium cholate, 1 mM EDTA, […]). The protein concentration was quantified with BCA kit (Pierce, ThermoFisher Scientific, USA). Thirty micrograms protein were separated by 10 or 12% sodium dodecyl sulfate-polyacrylamide gel electrophoresis depending on the band of target protein, then transferred onto equilibrated polyvinylidene difluoride membrane (PVDF, Immobilon®-PSQ transfer membranes, Merck Millipore, Germany). Membranes were incubated with primary antibodies overnight at 4 °C. Specific antibodies were listed in Supplementary Table 3. After incubation with the secondary antibody, proteins were detected by enhanced chemiluminescence (Glarity^TM Western ECL Substrate, Bio-Rad, USA) and the signals were recorded and quantified with Tanon-Image Software (Shanghai, China). Reference antibody GAPDH were used for data normalization.

[3] = Serum stability assay (RP-HPLC); type: in vitro ADME; details: for Fraction of peptide remaining, Supplementary Figure 5: mouse serum
Protocol: The stability of candidate peptides was investigated following procedure. […] Ice-cold acetonitrile was added to terminate the reaction. Vortex and stand for 1 min, deionized water with 1% TFA was added to the mixture to further terminate the reaction. Mixtures were then centrifuged (13,000g, 10 min) to obtain the supernatant. RP-HPLC-MS was applied to analysis the content of candidate peptides. The serum stability of candidate peptides was represented as the retention rate of each peptide.

[4] = Sprague-Dawley, rat, male SD rats, single iv dose: JT003 0.5 mg/kg, ADP355 1.0 mg/kg, plasma, LC-MS/MS, non-compartmental, Mean ± SD, n = 3-6
[5] = Figure 7e, liver western blot, CCl4 + JT003 group, single replicates, n = 4
[6] = Figure 7f, liver western blot, CCl4 + JT003 group, single replicates, n = 4

## CCC[C@H](NC(=O)[C@@H]1CCCN1)C(=O)N[C@@H](CC(C)C)C(=O)N[C@@H](Cc1ccc(O)cc1)C(=O)N[C@@H](Cc1ccc(O)cc1)C(=O)N[C@@H](Cc1ccccc1)C(=O)N[C@@H](C)C(N)=O [JT003] (H-P[Nva]LYYFA-NH2)
HepG2 cells
  lipid droplets accumulation caused by PA (Oil Red O): exhibited the best potential
AdipoR1
  competitive binding to globular adiponectin, AdipoR1 overexpression cells: more JT003 cause less globular adiponectin binding
[1]; [4]
  AUC(0-inf): 20.9 ± 1.63 ng·h/mL
  AUC(0-t): 19.4 ± 1.51 ng·h/mL
  MRT: 62.4 ± 1.8 min
  clearance: 401 mL/min/kg
[1]; Sprague-Dawley, rat, male SD rats, single iv dose: JT003 0.5 mg/kg, ADP355 1.0 mg/kg, plasma, LC-MS/MS, non-compartmental, Mean ± SD, n = 3-6, read-out: V
  Vd: 26 ± 2.29 L/kg
[1]; male SD rats, single iv dose: JT003 0.5 mg/kg, ADP355 1.0 mg/kg, plasma, LC-MS/MS, non-compartmental, Mean ± SD, n = 3-6 (n = 3 per group)
  t1/2: 45 ± 0.6 min and 45 min
[1]; reviewer's reading of the PK experiment
  improved circulating half-life vs the predecessor compound (ADP355): 7-8 fold
[2]; CCl4 fibrosis mice, liver, JT003 500 μg kg−1, in words
  NFκB (western blotting): significantly downregulated
[2]; CCl4 induced fibrosis mice, liver, JT003 500 μg kg−1, in words
  phosphorylation levels of JNK, eIF2α and PERK: decreased phosphorylation levels
[2]; CCl4 mice, JT003 500 μg kg−1, in words
  αSMA and COL1α1 (western blot, liver): significant downregulation
[2]; [5]
  pJNK/JNK: 0.7206 and 0.4902 and 0.6285 and 0.438
  pPERK/PERK: 0.5616 and 0.9445 and 0.6641 and 0.5949
  peIF2a/eIF2a: 1.116 and 0.4247 and 0.9192 and 0.3729
[2]; [6]
  CYP2E1/GAPDH: 1.469 and 1.0581 and 1.298 and 1.11
  PGC1a/GAPDH: 2.2635 and 2.209 and 2.565 and 2.497
[2]; Figure 6d, liver, CCl4 + JT003 group, single replicates, n = 4
  anti-PP65 / anti-P65 western blot quantification: 0.3517 and 0.3717 and 0.2194 and 0.5295
[3]; time 0 (unit not given), replicate 1
  Fraction of peptide remaining, Supplementary Figure 5: 0.9904
[3]; time 0 (unit not given), replicate 2
  Fraction of peptide remaining, Supplementary Figure 5: 1.127
[3]; time 0 (unit not given), replicate 3
  Fraction of peptide remaining, Supplementary Figure 5: 0.9633
[3]; time 1 (unit not given), replicate 2
  Fraction of peptide remaining, Supplementary Figure 5: 0.7303
[3]; time 1 (unit not given), replicate 3
  Fraction of peptide remaining, Supplementary Figure 5: 0.7063
[3]; time 2 (unit not given), replicate 1
  Fraction of peptide remaining, Supplementary Figure 5: 0.4963
[3]; time 2 (unit not given), replicate 2
  Fraction of peptide remaining, Supplementary Figure 5: 0.5281
[3]; time 2 (unit not given), replicate 3
  Fraction of peptide remaining, Supplementary Figure 5: 0.4921
[3]; time 3 (unit not given), replicate 1
  Fraction of peptide remaining, Supplementary Figure 5: 0.4291
[3]; time 3 (unit not given), replicate 2
  Fraction of peptide remaining, Supplementary Figure 5: 0.4706
[3]; time 3 (unit not given), replicate 3
  Fraction of peptide remaining, Supplementary Figure 5: 0.4115
[3]; time 4 (unit not given), replicate 1
  Fraction of peptide remaining, Supplementary Figure 5: 0.3431
[3]; time 4 (unit not given), replicate 2
  Fraction of peptide remaining, Supplementary Figure 5: 0.3616
[3]; time 4 (unit not given), replicate 3
  Fraction of peptide remaining, Supplementary Figure 5: 0.3877
[3]; time 5 (unit not given), replicate 1
  Fraction of peptide remaining, Supplementary Figure 5: 0.4378
[3]; time 5 (unit not given), replicate 2
  Fraction of peptide remaining, Supplementary Figure 5: 0.3169
[3]; time 5 (unit not given), replicate 3
  Fraction of peptide remaining, Supplementary Figure 5: 0.3694
[3]; time 6 (unit not given), replicate 1
  Fraction of peptide remaining, Supplementary Figure 5: 0.3549
[3]; time 6 (unit not given), replicate 2
  Fraction of peptide remaining, Supplementary Figure 5: 0.2659
[3]; time 6 (unit not given), replicate 3
  Fraction of peptide remaining, Supplementary Figure 5: 0.2904
[3]; time 8 (unit not given), replicate 2
  Fraction of peptide remaining, Supplementary Figure 5: 0.272
[3]; time 8 (unit not given), replicate 3
  Fraction of peptide remaining, Supplementary Figure 5: 0.2915
[3]; time 12 (unit not given), replicate 2
  Fraction of peptide remaining, Supplementary Figure 5: 0.1256
[3]; time 12 (unit not given), replicate 3
  Fraction of peptide remaining, Supplementary Figure 5: 0.2003
[3]; mouse, 5 mM peptide, 37 °C, 12 h, triplicate, mean, read-out: retention rate after incubation in serum
  remaining at 12 h, 5 mM: ~22%
